≈ marks a conversion by molar mass, not a printed value.
Tests used:
[1] = recent reports; cited from earlier work
[2] = test system: animal enzymes; settings: more recent studies; cited from earlier work
[3] = 25° C.; cited from earlier work
[4] = from the gastrointestinal tract, cited from earlier work
[5] = compared to digitoxin; cited from earlier work
[6] = in vivo; cited from earlier work
[7] = physchem; settings: 0.01 n hcl

For CO[C@H]1[C@@H](O)C[C@H](O[C@H]2[C@@H](O)C[C@H](O[C@H]3[C@@H](O)C[C@H](O[C@H]4CC[C@@]5(C)[C@H](CC[C@@H]6[C@@H]5C[C@@H](O)[C@]5(C)[C@@H](C7=CC(=O)OC7)CC[C@]65O)C4)O[C@@H]3C)O[C@@H]2C)O[C@@H]1C [4'"-methyldigoxin], the demethylation in man [1] is given as “actually demethylated in man” and the “resistance to degradation by animal enzymes” value [2] is given as “very resistant to degradation by animal enzymes”.
For C[C@H]1O[C@@H](O[C@H]2[C@@H](O)C[C@H](O[C@H]3[C@@H](O)C[C@H](O[C@H]4CC[C@@]5(C)[C@H](CC[C@@H]6[C@@H]5C[C@@H](O)[C@]5(C)[C@@H](C7=CC(=O)OC7)CC[C@]65O)C4)O[C@@H]3C)O[C@@H]2C)C[C@H](O)[C@@H]1O [digoxin], the “solubility per ml of 0.1 N HCl” value [3] is listed as “about 78 mcg/ml”, the “completeness of absorption vs digitoxin” value ([4]; compared to digitoxin) is listed as “not as completely absorbed” and the extent of absorption [4] is listed as 50% to 70. For the same compound, the duration of action [5] was “shorter”, the onset of action [5] was “quite more rapid” and the “closeness of therapeutic and toxic dose” value [6] was “extremely close”. For the same compound, the solubility [7] was ~78 µg/mL (≈ 99.9 µM).
